Legend:
[1] = tested on: HCT116 MTAP wild-type cells; experiment: Human colon cancer HCT116 cell proliferation inhibition test (CellTiter-Glo, 6 days), MTAP wild-type cells; format: cell-based; conditions: HCT-116, 144 h
Protocol: (§1) 1. HCT116 MTAP knockout and MTAP wild-type cells were plated in 96-well flat bottom plates, and cultured overnight with McCoy's 5A medium containing 10% fetal bovine serum+1% penicillin-streptomycin at 37° C. and 5% CO2.
(§2) 2. On the next day, the compound was dissolved with DMSO, diluted with DMSO and medium successively and transferred to the cell plate. The final concentration of the compound was 10 μM, the compound was diluted 4 times, with 9 concentration gradients, and DMSO control was added.
(§3) 3. Cells that have not been treated with the compound were removed. CellTiter-Glo Luminescent Cell Viability Assay (Promega) was used to detect cell viability, the operation was performed with reference to the package insert of the kit, and then the cell plate was placed on EnVision Multilabel Reader to detect the cold light signal.
(§4) 4. Meanwhile, the cell plate treated with the compound was cultured at 37° C. and 5% CO2 for 6 consecutive days.
(§5) 5. Then, CellTiter-Glo was also used to detect cell viability.
(§6) 6. Finally, the four-parameter dose-response curve module of GraphPad Prism v 9.2.0 software was used to plot the dose-response curve and calculate the IC50 for proliferation inhibition (unit: nM).

[2] = tested on: HCT116 MTAP knockout cells; experiment: Human colon cancer HCT116 cell proliferation inhibition test (CellTiter-Glo, 6 days), MTAP knockout cells; format: cell-based; conditions: HCT-116, 144 h
Protocol: as §1, §2, §3, §4, §5, §6

IC50 [1] [nM] | IC50 [2] [nM] | SMILES
9470 | 286 | Nc1nc2ccc(C(=O)N(C3CC3)C3CCc4nc(C(F)(F)F)ccc43)cc2c2cnccc12 (centres unmarked) [Example 225, 5-amino-N-cyclopropyl-N-(2-(trifluoromethyl)-6,7-dihydro-5H-cyclopenta[b]pyridin-5-yl)benzo[c][2,6]naphthyridin-9-carboxamide]
227 | 9 | Cc1cc2nc(N)c3ccncc3c2cc1C(=O)N(CC1CC1)[C@@H]1CCc2nc(C(F)(F)F)ccc21 [Example 236, (R)-5-amino-N-(cyclopropylmethyl)-8-methyl-N-(2-(trifluoromethyl)-6,7-dihydro-5H-cyclopenta[b]pyridin-5-yl)benzo[c][2,6]naphthyridin-9-carboxamide]
79 | 0.8 | Cn1cc(N(C(=O)c2cc3c(cc2F)nc(N)c2cnn(C)c23)C2COc3cc(C(F)(F)F)ccc32)cn1 (centres unmarked) [Example 21, 4-amino-7-fluoro-1-methyl-N-(1-methyl-1H-pyrazol-4-yl)-N-(6-(trifluoromethyl)-2,3-dihydrobenzofuran-3-yl)-1H-pyrazolo[4,3-c]quinolin-8-carboxamide]
264 | 14 | Nc1nc2cc(Cl)c(C(=O)N(CC3CC3)[C@@H]3CCc4nc(C(F)(F)F)ccc43)cc2c2cnccc12 [Example 238, (R)-5-amino-8-chloro-N-(cyclopropylmethyl)-N-(2-(trifluoromethyl)-6,7-dihydro-5H-cyclopenta[b]pyridin-5-yl)benzo[c][2,6]naphthyridin-9-carboxamide]
7400 | 63 | Nc1nc2ccc(C(=O)N(c3ncccn3)C3CCc4cc(C(F)(F)F)ccc43)cc2c2cnccc12 (centres unmarked) [Example 210, 5-amino-N-(pyrimidin-2-yl)-N-(5-(trifluoromethyl)-2,3-dihydro-1H-inden-1-yl)benzo[c][2,6]naphthyridin-9-carboxamide]
8470 | 82 | Cn1cc(N(C(=O)c2cc3c(cc2F)nc(N)c2cnn(C)c23)[C@H]2COc3cc(C(F)(F)F)ccc32)cn1 [Example 206, (R)-4-amino-7-fluoro-1-methyl-N-(1-methyl-1H-pyrazol-4-yl)-N-(6-(trifluoromethyl)-2,3-dihydrobenzofuran-3-yl)-1H-pyrazolo[4,3-c]quinolin-8-carboxamide]
293 | 6 | Nc1nc2ccc(C(=O)N(c3cnsc3)[C@@H]3CCc4cc(C(F)(F)F)ccc43)cc2c2cnccc12 [Example 204, (R)-5-amino-N-(isothiazol-4-yl)-N-(5-(trifluoromethyl)-2,3-dihydro-1H-inden-1-yl)benzo[c][2,6]naphthyridin-9-carboxamide]
423 | 8.6 | Nc1nc2ccc(C(=O)N(CC3CC3)[C@@H]3COc4nc(C(F)(F)F)ccc43)cc2c2cnccc12 [Example 195, (S)-5-amino-N-(cyclopropylmethyl)-N-(6-(trifluoromethyl)-2,3-dihydrofuro[2,3-b]pyridin-3-yl)benzo[c][2,6]naphthyridin-9-carboxamide]
2440 | 50 | Cn1cc(N(C(=O)c2ccc3nc(N)c4c(cnn4C)c3c2)[C@@H]2COc3cc(C(F)(F)F)ccc32)cn1 [Example 187, (S)-4-amino-3-methyl-N-(1-methyl-1H-pyrazol-4-yl)-N-(6-(trifluoromethyl)-2,3-dihydrobenzofuran-3-yl)-3H-pyrazolo[3,4-c]quinolin-8-carboxamide]
104 | 9 | Cn1ncc2c(N)nc3cc(F)c(C(=O)N(c4cnsc4)[C@@H]4CCc5cc(C(F)(F)F)ccc54)cc3c21 [Example 203, (R)-4-amino-7-fluoro-N-(isothiazol-4-yl)-1-methyl-N-(5-(trifluoromethyl)-2,3-dihydro-1H-inden-1-yl)-1H-pyrazolo[4,3-c]quinolin-8-carboxamide]
1950 | 44 | Cn1cc(N(C(=O)c2ccc3nc(N)c4ccncc4c3c2)C2CCc3cc(C(F)(F)F)ccc32)cn1 (centres unmarked) [Example 132, 5-amino-N-(1-methyl-1H-pyrazol-4-yl)-N-(5-(trifluoromethyl)-2,3-dihydro-1H-inden-1-yl)benzo[c][2,6]naphthyridin-9-carboxamide]
788 | 20 | Nc1nc2cc(F)c(C(=O)N(CC3CC3)[C@@H]3CCc4nc(C(F)(F)F)ccc43)cc2c2cnccc12 [Example 237, (R)-5-amino-N-(cyclopropylmethyl)-8-fluoro-N-(2-(trifluoromethyl)-6,7-dihydro-5H-cyclopenta[b]pyridin-5-yl)benzo[c][2,6]naphthyridin-9-carboxamide]
70 | 3 | Nc1nc2cc(F)c(C(=O)N(c3cscn3)[C@@H]3CCc4cc(C(F)(F)F)ccc43)cc2c2c1COC2 [Example 213, (R)-4-amino-7-fluoro-N-(thiazol-4-yl)-N-(5-(trifluoromethyl)-2,3-dihydro-1H-inden-1-yl)-1,3-dihydrofuro[3,4-c]quinolin-8-carboxamide]
696 | 54 | CCN(C(=O)c1cc2c(cc1F)nc(N)c1cnn(C)c12)C1CCc2cc(C(F)(F)F)ccc21 (centres unmarked) [Reference Compound 1, reference compound]
335 | 17 | Cn1cc(N(C(=O)c2cc3c4c(c(N)nc3cc2F)COC4)C2CCc3nc(C(F)(F)F)ccc32)cn1 (centres unmarked) [Example 160, 4-amino-7-fluoro-N-(1-methyl-1H-pyrazol-4-yl)-N-(2-(trifluoromethyl)-6,7-dihydro-5H-cyclopenta[b]pyridin-5-yl)-1,3-dihydrofuro[3,4-c]quinolin-8-carboxamide]
824 | 15 | Nc1nc2ccc(C(=O)N(CC3CC3)C3COc4cc(C(F)(F)F)ccc43)cc2c2cnccc12 (centres unmarked) [Example 109, 5-amino-N-(cyclopropylmethyl)-N-(6-(trifluoromethyl)-2,3-dihydrobenzofuran-3-yl)benzo[c][2,6]naphthyridin-9-carboxamide]
1950 | 50 | Cn1cc(N(C(=O)c2ccc3nc(N)c4ccncc4c3c2)[C@@H]2CCc3cc(C(F)(F)F)ccc32)cn1 [Example 226, (R)-5-amino-N-(1-methyl-1H-pyrazol-4-yl)-N-(5-(trifluoromethyl)-2,3-dihydro-1H-inden-1-yl)benzo[c][2,6]naphthyridin-9-carboxamide]
279 | 4 | Cn1cc(N(C(=O)c2cc3c4c(c(N)nc3cc2F)COC4)[C@@H]2COc3nc(C(F)(F)F)ccc32)cn1 [Example 209, (S)-4-amino-7-fluoro-N-(1-methyl-1H-pyrazol-4-yl)-N-(6-(trifluoromethyl)-2,3-dihydrofuro[2,3-b]pyridin-3-yl)-1,3-dihydrofuro[3,4-c]quinolin-8-carboxamide]
30 | 1 | Cn1cc(N(C(=O)c2cc3c(cc2F)nc(N)c2cnn(C)c23)[C@@H]2COc3nc(C(F)(F)F)ccc32)cn1 [Example 2, (S)-4-amino-7-fluoro-1-methyl-N-(1-methyl-1H-pyrazol-4-yl)-N-(6-(trifluoromethyl)-2,3-dihydrofuro[2,3-b]pyridin-3-yl)-1H-pyrazolo[4,3-c]quinolin-8-carboxamide]
